Data as given in article PMC3764026, “Adaptive Evolution of Escherichia coli to an α-Peptide/β-Peptoid Peptidomimetic Induces Stable Resistance” (PLoS ONE, 2013).
In brackets after ≈: the same amount, converted by molar mass. Like-named read-outs stand apart in the source and are kept apart here.

Columns and labels:
[1] = tested on: E. coli ATCC 25922 control lineages; type: cell-based, Escherichia coli; conditions: two technical duplicates; for MIC against peptidomimetic 1 after selection: MHB
Protocol: (§1) Continuous selection of resistance was performed for peptidomimetic 1 (Figure 1) and for the clinically relevant natural antimicrobial peptide, polymyxin B. A bacterial suspension of a single colony of E. coli ATCC 25922 was re-inoculated (10 µl) five times in unsupplemented MHB (990 µl). It was then re-inoculated in MHB supplemented with peptidomimetic 1 (ten lineages) or polymyxin B (ten lineages), and after ten re-inoculations at constant peptidomimetic or polymyxin B concentration, the concentrations were doubled. […] Four lineages grown in MHB with MilliQ water were included as control. Re-inoculations were performed twice a day, but were reduced to once a day when growth was slower as assessed by turbidity of the cultures. The total number of passages (supplemented with peptidomimetic/AMP) was 77 times equivalent to approx. 500 generations. For each increase in concentration the lineages were preserved as freezing stocks. Ten colony isolates were randomly selected from each lineage population at 32×MIC and preserved as freezing stocks.
MIC was determined by using the micro-dilution method according to guidelines of the Clinical and Laboratory Standards Institute. Peptidomimetic 1 and erythromycin 1∶2 serial dilutions were prepared from 1024 µg/mL stock solutions to give a final range of 512-0.5 µg/mL in the wells. Ampicillin 1∶2 serial dilutions were prepared from a 256 µg/mL stock solution to give a final range of 128-0.13 µg/mL in the wells. Polymyxin B and gentamicin 1∶2 serial dilutions were prepared from a 64 µg/mL stock solution to give a final range of 32-0.03 µg/mL in the wells. Also, 1∶2 serial dilutions of the AMPs KR-12, IsCTp, melittin and PEP-1-K were prepared from 64 µg/mL stock solutions to give a final range of 32-0.03 µg/mL in the wells; however this was performed in 1% peptone instead of in MHB since activity was drastically diminished in the latter (not shown).
(§2) The population lineages were tested for their susceptibility towards peptidomimetic 1, polymyxin B, gentamicin and ampicillin. Single-culture isolates selected from these populations were additionally tested against peptidomimetic 1, polymyxin B, erythromycin and the five reference AMPs. To estimate the level of cross-resistance to closely related peptidomimetics, MIC determinations were performed for peptidomimetics 2 and 3 (Figure 1) towards selected isolates. The bacterial suspensions were grown overnight in MHB at 37°C for determination of the population MIC, or individual isolates were grown overnight on non-selective BHI agar at 37°C. […] In all experiments, bacterial cells were suspended in 0.9% saline to give a turbidity of 0.13 at OD546 (approximately 1×10^8 CFU/mL) and diluted in MHB pH 7.4 to a final concentration of 5×10^5 CFU/mL in each well. Polypropylene plates (Nunc 442587) were used to minimize peptide binding, and the incubation time was 18–20 hours at 37°C. Incubation time was additionally extended up to 44 hours for the individual isolates due to a potential effect of growth rate on the outcome, but no effect was seen of this (not shown). MIC was found in a minimum of two technical (population MIC) or biological (isolate MIC) replicates as the lowest concentration of the AMP or antibiotic where no visible growth was observed.
Frozen stocks were reconditioned in unsupplemented MHB media for five transfers (∼35 generations) at 37°C. The heritability of resistance was established through MIC determination of bacterial populations as described above.

[2] = tested on: isolates from peptidomimetic 1-exposed E. coli ATCC 25922 lineages; conditions: for MIC in MHB: standard MHB media
Protocol: as §1
(§3) MIC was determined by using the micro-dilution method according to guidelines of the Clinical and Laboratory Standards Institute. Peptidomimetic 1 and erythromycin 1∶2 serial dilutions were prepared from 1024 µg/mL stock solutions to give a final range of 512-0.5 µg/mL in the wells. Ampicillin 1∶2 serial dilutions were prepared from a 256 µg/mL stock solution to give a final range of 128-0.13 µg/mL in the wells. Polymyxin B and gentamicin 1∶2 serial dilutions were prepared from a 64 µg/mL stock solution to give a final range of 32-0.03 µg/mL in the wells.
as §2, with “Incubation time was additionally extended up to 44 hours for the individual isolates due to a potential effect of growth rate on the outcome, but no effect was seen of this (not shown).” left out

E. coli ATCC 25922 = conditions: wild-type E. coli ATCC 25922
Protocol: as §3
as §2, with “Incubation time was additionally extended up to 44 hours for the individual isolates due to a potential effect of growth rate on the outcome, but no effect was seen of this (not shown).” left out
(§4) Four isolates, i.e. 2-7, 4-4, 5-6 and 7-3, a representative isolate from four different lineages, were revived from freeze storage. The four isolates were grown in 25–50% blood plasma and in 25–50% heat-inactivated plasma as previously described. Blood plasma was obtained from two different blood donors using sodium citrate as anticoagulant and experiments were performed on at least two independent days. Both donors were fully informed about the study and purpose and a written consent has been received. […] For this the 1∶2 serial dilutions were made in MHB with 50% blood plasma added to give a final concentration of 25% plasma in the wells.

[3] = tested on: peptidomimetic-adapted E. coli isolates; conditions: for Potentiation (ability of plasma to interact synergistically with peptidomimetic 1): MHB vs MHB +25% plasma; for MIC in MHB +25% plasma: MHB with 25% human blood plasma (sodium citrate)
Protocol: as §3
as §2, with “Incubation time was additionally extended up to 44 hours for the individual isolates due to a potential effect of growth rate on the outcome, but no effect was seen of this (not shown).” left out
as §4

In the case of CC(=O)N[C@@H](CCCCNC(=N)N)C(=O)N(CCC(=O)N[C@@H](CCCCNC(=N)N)C(=O)N(CCC(=O)N[C@@H](CCCCNC(=N)N)C(=O)N(CCC(=O)N[C@@H](CCCCNC(=N)N)C(=O)N(CCC(=O)N[C@@H](CCCCNC(=N)N)C(=O)N(CCC(=O)N[C@@H](CCCCNC(=N)N)C(=O)N(CCC(N)=O)[C@@H](C)c1ccccc1)[C@@H](C)c1ccccc1)[C@@H](C)c1ccccc1)[C@@H](C)c1ccccc1)[C@@H](C)c1ccccc1)[C@@H](C)c1ccccc1 [peptidomimetic 1], the “MIC against peptidomimetic 1 after 35 generations w/o selection” value ([1]; Control 1 lineage (MilliQ water)) was 16 to 32 µg/mL, the “MIC against peptidomimetic 1 after selection” value ([1]; Control 1 lineage (MilliQ water, no peptidomimetic)) was 32 µg/mL (≈ 15 µM) and the “MIC against peptidomimetic 1 after 35 generations w/o selection” value ([1]; Control 2 lineage (MilliQ water)) was 8 µg/mL (≈ 3.75 µM). For the same compound, the “MIC against peptidomimetic 1 after selection” value ([1]; Control 2 lineage (MilliQ water, no peptidomimetic)) was 8 µg/mL (≈ 3.75 µM), the “MIC of individual isolates” value ([2]; eight out of ten isolates from lineage no. 4) was 8 µg/mL and the MIC of isolate ([2]; isolate 2–3, first listed of three biological replicates) was 8 µg/mL. For the same compound, the MIC of isolate ([2]; isolate 2–3, second listed of three biological replicates) was 16 µg/mL, the MIC of isolate ([2]; isolate 2–3, third listed of three biological replicates) was 64 µg/mL and the “MIC in MHB” value ([2]; isolate 2–7 (lineage 2)) was 64 to 128 µg/mL. It also gave an MIC of isolate ([2]; isolate 2–8, first listed of three biological replicates) of 16 µg/mL, an MIC of isolate ([2]; isolate 2–8, second listed of three biological replicates) of 64 µg/mL and an MIC of isolate ([2]; isolate 2–8, third listed of three biological replicates) of 128 µg/mL. The “MIC in MHB” value ([2]; isolate 4–4 (lineage 4)) was 8 µg/mL (≈ 3.75 µM), the “MIC in MHB” value ([2]; isolate 5–6 (lineage 5)) was 32 to 64 µg/mL and the “MIC in MHB” value ([2]; isolate 7–3 (lineage 7)) was 128 µg/mL (≈ 60 µM). The “grouping of genome-sequenced isolates by MIC: high resistance” value ([2]; isolates 2–4, 2–6, 2–7, 2–9, 2–10, 7–3, 7–4, 7–7, wt MIC value 8 µg/mL) was “High resistance isolates: 8–16 ×wt MIC”, the MIC ([2]; isolates 2–4 and 2–6 (shared values), two biological replicates, mean when results varied) was 96 µg/mL (≈ 45 µM) and the “grouping of genome-sequenced isolates by MIC: low resistance” value ([2]; isolates 4-1, 4-3, 5-6, 5-8, 5-9, wt MIC value 8 µg/mL) was “Low resistance isolates: 4–8 ×wt MIC”. The “grouping of genome-sequenced isolates by MIC” value ([2]; isolates 4–4, 4–6, 4–10, 5–2, 5–4, 7–9, 7–10, wt MIC value 8 µg/mL) was “Isolates with wt MIC”, the “MIC of individual isolates” value ([2]; seven out of ten isolates from lineage no. 5) was 8 µg/mL and the “MIC lower as compared to that of the lineage population (256 µg/mL)” value ([2]; the other two isolates from lineage no. 4) was 4 fold. The “MIC of individual isolates, span” value ([2]; the ten isolates from lineage no. 2, biological replicates) was 8 to 128 µg/mL, the “MIC of individual isolates, span” value ([2]; the ten isolates from lineage no. 7) was 8 to 128 µg/mL and the “Potentiation (ability of plasma to interact synergistically with peptidomimetic 1)” value (“Potentiation” for short) (E. coli ATCC 25922; MHB vs MHB +25% plasma) was “Weak”. For the same compound, the “MIC in MHB +25% plasma” value (E. coli ATCC 25922; MHB with 25% human blood plasma (sodium citrate)) was 2 µg/mL (≈ 0.938 µM), the “Potentiation” value ([3]; isolate 2–7) was “Strong” and the “MIC in MHB +25% plasma” value ([3]; isolate 2–7) was 0.25 to 2 µg/mL. For the same compound, the “Potentiation” value ([3]; isolate 4–4) was “Weak”, the “MIC in MHB +25% plasma” value ([3]; isolate 4–4) was 1 to 4 µg/mL and the “Potentiation” value ([3]; isolate 5–6) was “Weak”. The “MIC in MHB +25% plasma” value ([3]; isolate 5–6) was 4 to 8 µg/mL, the “Potentiation” value ([3]; isolate 7–3) was “Strong” and the “MIC in MHB +25% plasma” value ([3]; isolate 7–3) was 1 to 2 µg/mL.
